Source: patent US11897851B2, “Heterocyclic GLP-1 agonists” (Gasherbrum Bio, Inc., priority 2021, dated 2024)

Biological target: T1, GLP-1 Receptor (Homo sapiens, UniProt P43220)
T1 construct: host or cells: HEK293/GLP1R/CRE-LUC (HEK293/CRE-Luc stably expressing the GLP-1 receptor)
Experiment: GLP-1R agonist cAMP stimulation assay (HEK293/GLP1R/CRE-LUC cells, Cisbio cAMP dynamic 2 kit);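 also: compounds tested in half-log serial dilution, cAMP detected with cAMP-d2 and anti-cAMP cryptate antibody reagents after 1 h at room temperature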
Assay type: cell-based
Settings: HEK293/CRE-Luc cell line stably expressing the GLP-1 Receptor; 1000 cells/well; 30 min at 37° C.; 0.5 mM IBMX, 0.1% BSA; read-out: GLP1R cAMP Stimulation DR: EC50

T1 sequence (P43220 24-463, species assumed): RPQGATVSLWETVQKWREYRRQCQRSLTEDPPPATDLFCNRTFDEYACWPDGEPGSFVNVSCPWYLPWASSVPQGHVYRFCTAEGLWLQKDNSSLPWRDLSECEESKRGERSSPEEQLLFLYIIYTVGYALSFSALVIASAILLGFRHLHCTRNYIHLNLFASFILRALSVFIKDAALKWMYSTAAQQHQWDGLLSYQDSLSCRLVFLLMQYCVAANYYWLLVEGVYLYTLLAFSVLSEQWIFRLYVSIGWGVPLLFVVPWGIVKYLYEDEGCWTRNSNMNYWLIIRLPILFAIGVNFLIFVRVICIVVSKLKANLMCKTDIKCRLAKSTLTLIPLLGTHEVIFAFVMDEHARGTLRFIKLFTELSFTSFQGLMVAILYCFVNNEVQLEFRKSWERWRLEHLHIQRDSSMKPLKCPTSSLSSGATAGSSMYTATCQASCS

Row | SMILES | EC50 [nM]
1 | Cn1c(-c2cc(=O)[nH]o2)cnc1CN1CCC(c2cccc(OCc3ccc(Cl)cc3F)n2)CC1 [Compound 250, 5-(2-((4-(6-((4-chloro-2-fluorobenzyl)oxy)pyridin-2-yl)piperidin-1-yl)methyl)-1-methyl-1H-imidazol-5-yl)isoxazol-3(2H)-one] | 1.6
2 | O=C(O)/C=C/c1nnc(CN2CCC(c3cccc(OCc4ccc(Cl)cc4F)n3)CC2)n1CC1CCOCC1 [Compound 233, (E)-3-[5-[[4-[6-[(4-chloro-2-fluoro-phenyl)methoxy]-2-pyridyl]-1-piperidyl]methyl]-4-(tetrahydropyran-4-ylmethyl)-1,2,4-triazol-3-yl]prop-2-enoic acid] | 26
3 | Cn1c(-c2nn[nH]n2)cnc1CN1CCC(c2cccc(OCc3ccc(Cl)cc3F)n2)CC1 [Compound 105, 2-((4-chloro-2-fluorobenzyl)oxy)-6-(1-((1-methyl-5-(2H-tetrazol-5-yl)-1H-imidazol-2-yl)methyl)piperidin-4-yl)pyridine] | 59.2
4 | O=C(O)/C=C/c1cnc(CN2CCC(c3cccc4c3OC[C@@H](c3ccc(Cl)cc3)O4)CC2)n1Cc1ncco1 [Compound 186a, (R,E)-3-(2-((4-(2-(4-chlorophenyl)-2,3-dihydrobenzo [b][1,4]dioxin-5-yl)piperidin-1-yl)methyl)-1-(oxazol-2-ylmethyl)-1H-imidazol-5-yl)acrylic acid] | 0.41
5 | C/C(=C\c1nnc(CN2CCC(c3cccc4c3OC(C)(c3ccc(Cl)cc3F)O4)CC2)n1C[C@@H]1CCO1)C(=O)O (stereo partly drawn) [Compound 137a, (E)-3-(5-((4-(2-(4-chloro-2-fluorophenyl)-2-methylbenzo[d][1,3]dioxol-4-yl)piperidin-1-yl)methyl)-4-(((S)-oxetan-2-yl)methyl)-4H-1,2,4-triazol-3-yl)-2-methylacrylic acid] | 0.3
6 | C/C(=C\c1cnc(CN2CCC(c3cccc4c3O[C@@](C)(c3ccc(Cl)cc3)O4)CC2)n1C[C@@H]1CCO1)C(=O)O [Compound 134a, (E)-3-(2-((4-((S)-2-(4-chlorophenyl)-2-methylbenzo [d][1,3]dioxol-4-yl)piperidin-1-yl)methyl)-1-(((S)-oxetan-2-yl)methyl)-1H-imidazol-5-yl)-2-methylacrylic acid] | 0.21
7 | O=C(O)C1CC1c1cnc(CN2CCC(c3cccc(OCc4ccc(Cl)cc4F)n3)CC2)n1C[C@@H]1CCO1 (stereo partly drawn) [Compound 114a, 2-(2-((4-(6-((4-chloro-2-fluorobenzyl)oxy)pyridin-2-yl)piperidin-1-yl)methyl)-1-(((S)-oxetan-2-yl)methyl)-1H-imidazol-5-yl)cyclopropane-1-carboxylic acid] | 9.4
8 | C/C(=C\c1cnc(CN2CCC(c3cccc(OCc4ccc(Cl)cc4F)n3)CC2)n1C[C@@H]1CCO1)C(=O)O [Compound 218a, (S,E)-3-(2-((4-(6-((4-chloro-2-fluorobenzyl)oxy)pyridin-2-yl)piperidin-1-yl)methyl)-1-(oxetan-2-ylmethyl)-1H-imidazol-5-yl)-2-methylacrylic acid] | 1.4
9 | C/C(=C\c1cnc(CN2CCC(c3cccc4c3O[C@H](c3ccc(Cl)cc3)O4)CC2)n1C[C@@H]1CCO1)C(=O)O [Compound 133b, (E)-3-(2-((4-((R)-2-(4-chlorophenyl)benzo[d][1,3]dioxol-4-yl)piperidin-1-yl)methyl)-1-(((S)-oxetan-2-yl)methyl)-1H-imidazol-5-yl)-2-methylacrylic acid] | 48
10 | CC1(c2ccc(Cl)cc2F)Oc2cccc(C3CCN(Cc4ncc(CCC(=O)O)n4Cc4ccccc4)CC3)c2O1 (stereo not shown) [Compound 242, 3-(1-benzyl-2-((4-(2-(4-chloro-2-fluorophenyl)-2-methylbenzo[d][1,3]dioxol-4-yl)piperidin-1-yl)methyl)-1H-imidazol-5-yl)propanoic acid] | 0.63
11 | CC1(c2ccc(Cl)cc2F)Oc2cccc(C3CCN(Cc4ncc(/C=C/C(=O)O)n4CC4CC(O)C4)CC3)c2O1 (stereo not shown) [Compound 177, (E)-3-(2-((4-(2-(4-chloro-2-fluorophenyl)-2-methylbenzo[d][1,3]dioxol-4-yl)piperidin-1-yl)methyl)-1-((3-hydroxycyclobutyl)methyl)-1H-imidazol-5-yl)acrylic acid] | 0.18
12 | CCn1cncc1Cn1c(CCC(=O)O)cnc1CN1CCC(c2cccc3c2OC(C)(c2ccc(Cl)cc2F)O3)CC1 (stereo not shown) [Compound 143, 3-(2-((4-(2-(4-chloro-2-fluorophenyl)-2-methylbenzo[d][1,3]dioxol-4-yl)piperidin-1-yl)methyl)-1-((1-ethyl-1H-imidazol-5-yl)methyl)-1H-imidazol-5-yl)propanoic acid] | 0.0059
13 | O=C(O)/C=C/c1cnc(CN2CCC(c3cccc4c3OC[C@@H](c3ccc(Cl)cc3)O4)CC2)n1Cc1ccno1 [Compound 187a, (R,E)-3-(2-((4-(2-(4-chlorophenyl)-2,3-dihydrobenzo [b][1,4]dioxin-5-yl)piperidin-1-yl)methyl)-1-(isoxazol-5-ylmethyl)-1H-imidazol-5-yl)acrylic acid] | > 1000
14 | C[C@]1(c2ccc(Cl)cn2)Oc2cccc(C3CCN(Cc4ncc(-c5nnc(C(F)(F)F)[nH]5)cc4CC4(C#N)CC4)CC3)c2O1 [Compound 277, 1-{[2-({4-[(2S)-2-(5-chloropyridin-2-yl)-2-methyl-2H-1,3-benzodioxol-4-yl]piperidin-1-yl}methyl)-5-[5-(trifluoromethyl)-4H-1,2,4-triazol-3-yl]pyridin-3-yl]methyl}cyclopropane-1-carbonitrile] | 0.023
15 | CCn1cncc1Cn1c(/C=C/C(=O)O)nnc1CN1CCC(c2cccc3c2OC[C@@H](c2ccc(Cl)cc2)O3)CC1 [Compound 234a, (R,E)-3-(5-((4-(2-(4-chlorophenyl)-2,3-dihydrobenzo[b][1,4]dioxin-5-yl)piperidin-1-yl)methyl)-4-((1-ethyl-1H-imidazol-5-yl)methyl)-4H-1,2,4-triazol-3-yl)acrylic acid] | 0.026
16 | CC1(c2ccc(Cl)cc2F)Oc2cccc(C3CCN(Cc4ncc(/C=C/C(=O)O)n4CCOC(F)F)CC3)c2O1 (stereo not shown) [Compound 168, (E)-3-(2-((4-(2-(4-chloro-2-fluorophenyl)-2-methylbenzo[d][1,3]dioxol-4-yl)piperidin-1-yl)methyl)-1-(2-(difluoromethoxy)ethyl)-1H-imidazol-5-yl)acrylic acid] | 0.046
17 | CC1(c2ccc(Cl)cc2F)Oc2cccc(C3CCN(Cc4ncc(/C=C/C(=O)O)n4Cc4cccnc4C(F)(F)F)CC3)c2O1 (stereo not shown) [Compound 146, (E)-3-(2-((4-(2-(4-chloro-2-fluorophenyl)-2-methylbenzo[d][1,3]dioxol-4-yl)piperidin-1-yl)methyl)-1-((2-(trifluoromethyl)pyridin-3-yl)methyl)-1H-imidazol-5-yl)acrylic acid] | 1.9
18 | CCc1ncccc1Cn1c(/C=C/C(=O)O)cnc1CN1CCC(c2cccc3c2OC(C)(c2ccc(Cl)cc2F)O3)CC1 (stereo not shown) [Compound 148, (E)-3-(2-((4-(2-(4-chloro-2-fluorophenyl)-2-methylbenzo[d][1,3]dioxol-4-yl)piperidin-1-yl)methyl)-1-((2-ethylpyridin-3-yl)methyl)-1H-imidazol-5-yl)acrylic acid] | 0.98
19 | CC1(C)C[C@H](Cn2c(/C=C/C(=O)O)cnc2CN2CCC(c3cccc4c3O[C@@](C)(c3ccc(Cl)cc3F)O4)CC2)CO1 [Compound 171b, (E)-3-(2-((4-((S)-2-(4-chloro-2-fluorophenyl)-2-methylbenzo[d][1,3]dioxol-4-yl)piperidin-1-yl)methyl)-1-(((R)-5,5-dimethyltetrahydrofuran-3-yl)methyl)-1H-imidazol-5-yl)acrylic acid] | 17
20 | CCn1cncc1Cn1c(/C=C/C(=O)O)nnc1CN1CCC(c2cccc3c2OC(C)(c2ccc(Cl)cc2F)O3)CC1 (stereo not shown) [Compound 142, (E)-3-(5-((4-(2-(4-chloro-2-fluorophenyl)-2-methylbenzo[d][1,3]dioxol-4-yl)piperidin-1-yl)methyl)-4-((1-ethyl-1H-imidazol-5-yl)methyl)-4H-1,2,4-triazol-3-yl)acrylic acid] | 0.012
21 | C[C@@H](Cn1c(/C=C/C(=O)O)cnc1CN1CCC(c2cccc3c2O[C@@](C)(c2ccc(Cl)cc2F)O3)CC1)OC1CC1 [Compound 170a, (E)-3-(2-((4-((S)-2-(4-chloro-2-fluorophenyl)-2-methylbenzo[d][1,3]dioxol-4-yl)piperidin-1-yl)methyl)-1-((S)-2-cyclopropoxypropyl)-1H-imidazol-5-yl)acrylic acid] | 2.5
22 | Cc1cc(-c2nnn[nH]2)cnc1CN1CCC(c2cccc3c2OC(C)(c2ccc(Cl)cc2F)O3)CC1 (stereo not shown) [Compound 253, 2-({4-[2-(4-chloro-2-fluorophenyl)-2-methyl-2H-1,3-benzodioxol-4-yl]piperidin-1-yl}methyl)-3-methyl-5-(1H-1,2,3,4-tetrazol-5-yl)pyridine] | 4
23 | COCCc1cc(-c2nnn[nH]2)cnc1CN1CCC(c2cccc3c2OC(C)(c2ccc(Cl)cc2F)O3)CC1 (stereo not shown) [Compound 256, 2-({4-[2-(4-chloro-2-fluorophenyl)-2-methyl-2H-1,3-benzodioxol-4-yl]piperidin-1-yl}methyl)-3-(2-methoxyethyl)-5-(1H-1,2,3,4-tetrazol-5-yl)pyridine] | 5
24 | O=C(O)/C=C/c1cnc(CN2CCC(c3cccc4c3OC[C@@H](c3ccc(Cl)cc3)O4)CC2)n1C[C@@H]1CCO1 [Compound 116a, (E)-3-(2-((4-((R)-2-(4-Chlorophenyl)-2,3-dihydrobenzo[b][1,4]dioxin-5-yl)piperidin-1-yl)methyl)-1-(((S)-oxetan-2-yl)methyl)-1H-imidazol-5-yl)acrylic acid] | 0.71
25 | Cn1cncc1Cn1c(/C=C/C(=O)O)cnc1CN1CCC(c2cccc3c2OC[C@@H](c2ccc(Cl)cc2)O3)CC1 [Compound 206a, (R,E)-3-(2-((4-(2-(4-chlorophenyl)-2,3-dihydrobenzo[b][1,4]dioxin-5-yl)piperidin-1-yl)methyl)-1-((1-methyl-1H-imidazol-5-yl)methyl)-1H-imidazol-5-yl)acrylic acid] | 0.19
